A short description of data set [1]: Optical properties (absorption, emission, extinction coefficient) of BDP635 and derivative SBDPiRs. It counts as physicochemical.
Data set [2] concerns nude mice. Kind of data set: In vivo optical imaging with Compound 53. Set-up: species or system mouse. The following applies: for in vivo fluorescence image: 2.5 μmol/kg i.p. The method, then: Optical imaging was performed with an IVIS Spectrum small-animal in vivo imaging system (Caliper LS). The Living Image Software v3.0 (Caliper LS) was used to analyze images and measurements of fluorescent signals. Excitation and emission wavelengths of 720 nm and 760 nm, respectively, were used to acquire in vivo fluorescent images of Compound 53 (M.W=[…]). All images were attained using a 1-s exposure time and an f/stop of 1, with a sampling of multiple angles with animal under Isoflurane anaesthesia. Animals were injected with 2.5 μmol/kg (2 mg/kg) of 53 via i.p. administration.

The nature of data set [3]: Singlet oxygen generation, indirect method of DPBF photooxidation. The following applies: DPBF photooxidation monitored at 410 nm. On the procedure: (§1) Singlet oxygen generation and photostability: A singlet oxygen generation experiment on compound 53 using the indirect method of DPBF photooxidation was performed. There were strong similarities of the behavior of 53 towards DPBF with SBDPiR715. […] The photooxidation of DPBF was monitored by UV-vis spectrophotometer at 410 nm. […] Additionally, less than 30% of 53 photobleached under the harsh light illumination condition over a period of an hour, which is a strong evidence for photostability (FIG. 21).

Data set [4] can be described thus: Photostability (photobleaching under light illumination). It counts as physicochemical. On the procedure:
as §1

Data set [5] concerns BALB/c mice bearing colon-26 cells (mouse colon carcinoma cells). Kind of data set: In vivo imaging with SBDPiR790. The following applies: 2.5 μmol/kg i.p. On the procedure: Female Balb/c mice were purchased from NCI (Federick, Md.). Mice were housed and handled in the College of Pharmacy animal facility, University of Oklahoma Health Sciences Center, Oklahoma City, Okla. All animal experiments were approved by IACUC, University of Oklahoma Health Sciences Center (personal approval was offered). Injection solution of SBDPiR790 was prepared by solubilizing it in DMSO (4 mM), and then it was diluted with 1% Tween 80-5% dextrose solution (PBS). The solution was filtered through a 0.2 μm sterile syringe filter before i.p. injection.
BALB/c mice bearing colon-26 cells (mouse colon carcinoma cells) were used for this study. 6-8 week old Balb/c mice were shaved and depilated with hair removal cream (Nair) at the upper back. The mice were subcutaneously inoculated with colon 26 cells at the neck region with […] in 0.1 ml PBS solution. Tumors with 4-6 mm diameter size were made in a week. The in vivo Xtreme imaging system (Carestream Health, Inc.) was used in acquiring images as mice were kept under safe anaesthesia using Isoflurane. The instrumental conditions for the imaging were as follows: fluorescence mode with excitation 760 nm and emission 830 nm; exposure time 5 sec; F/stop: 2 and pixel 2×2. Images collected were then processed using the Carestream MI imaging software to equally adjusted minima and maxima scale.
All mice received 2.5 μmol/kg of SBDPiR790 (MW=636.11 g/mol) solution in PBS (0.2 ml) via i.p. injection. Images were taken at 0 (before), 15 minutes, 3, 6, and 24 hours postinjection. […] Particularly SBDPiR790 can be a practical alternative to the sole clinically approved NIR probe, ICG. The stability, and excellent photophysical properties of SBDPiR790 and its lipophilic character make it useful for varied applications including cancer diagnosis and neurological imaging taking advantage of its ability to cross the blood-brain barrier.

Regarding “2,8-Di(bromo)-11-trifluoromethyl-dithieno[2,3-b]-[3,2-g]-5,5-difluoro-5-bora-3a,4a-dithio-s-indacene [BDP635]”, in data set [1], the λabs turned out to be 635 nm and the λflu is on record as 650 nm.
As for `COC(=O)c1ccc(C2=C3C=c4sc(-c5ccc(OC)cc5)cc4=[N+]3[B-](F)(F)n3c2cc2sc(-c4ccc(OC)cc4)cc23)cc1` [Compound 50, 2,8-Di(4-Methoxy-phenyl)-11-benzoic acid methyl ester-dithieno[2,3-b]-[3,2-g]-5,5-difluoro-5-bora-3a,4a-diaza-s-indacene], in data set [1], the fluorescence result is “relatively low fluorescence”. In addition, in data set [1] (in CHCl3), the 0-0 absorption came out at 685 nm and the molar extinction coefficient is given as 85 000 M^−1 cm^−1.
As to `O=C(O)COc1ccc(-c2sc3c(c2Br)=[N+]2C(=C(C(F)(F)F)c4cc5sc(-c6ccc(OCC(=O)O)cc6)c(Br)c5n4[B-]2(F)F)C=3)cc1` [Compound 53, 3,7-Dibromo-2,8-di(4-Carboxymethoxy-phenyl)-11-trifluoromethyl-dithieno[2,3-b]-[3,2-g]-5,5-difluoro-5-bora-3a,4a-diaza-s-indacene], the “in vivo fluorescence signal” value in data set [2] (2.5 μmol/kg (2 mg/kg) i.p., ex 720 nm / em 760 nm) is “Bright fluorescence signals were detected”. The “in vivo fluorescence image” value in data set [2] (5 and 10 minutes) was “two bright areas were observed in the mid-body”; in data set [2] (3 hours and 6 hours) it was “most skin showed bright emission”; in data set [2] (12 hours), “the intensity of skin was lower than the 3 hour and 6 hour images”. The singlet oxygen generation result in data set [3] is on record as “potent singlet oxygen generator”. The “photostability compared with m-THPC” value in data set [4] was “relatively better than the clinically approved m-THPC (Foscan)”. Further, the fraction photobleached result in data set [4] (harsh light illumination over a period of an hour) is recorded as “less than 30%”.
`F[B-]1(F)n2c(cc3sc(Oc4ccc(-c5ccccc5)cc4)cc32)C(C(F)(F)F)=C2C=c3sc(Oc4ccc(-c5ccccc5)cc4)cc3=[N+]21` [SBDPiR650, 2,8-Di(biphenyl-4-yloxy)-11-trifluoromethyl-dithieno[2,3-b]-[3,2-g]-5,5-difluoro-5-bora-3a,4a-diaza-s-indacene]: in data set [1], the ε is reported as 83 000 M^−1 cm^−1, the λabs came out at 649 nm and the λflu stood at 660 nm.
Regarding `COc1ccc(Oc2cc3c(s2)=CC2=C(C(F)(F)F)c4cc5sc(Oc6ccc(OC)cc6)cc5n4[B-](F)(F)[N+]=32)cc1` [SBDPiR650_OMe, 2,8-Di(4-methoxyphenoxy)-11-trifluoromethyl-dithieno[2,3-b]-[3,2-g]-5,5-difluoro-5-bora-3a,4a-diaza-s-indacene], in data set [1], the ε is given as 118 000 M^−1 cm^−1, the λabs was 649 nm and the λflu is given as 660 nm.
In the same order, the values of `F[B-]1(F)n2c(cc3sc(Sc4ccccc4)cc32)C(C(F)(F)F)=C2C=c3sc(Sc4ccccc4)cc3=[N+]21` [SBDPiR700, 2,8-Di(thiophenoxy)-11-trifluoromethyl-dithieno[2,3-b]-[3,2-g]-5,5-difluoro-5-bora-3a,4a-diaza-s-indacene] are 105 000 M^−1 cm^−1, 694 nm and 715 nm.
`COc1cc(-c2cc3c(s2)=CC2=C(C(F)(F)F)c4cc5sc(-c6cc(OC)c(OC)c(OC)c6)cc5n4[B-](F)(F)[N+]=32)cc(OC)c1OC` [SBDPiR730, 2,8-Di(3,4,5-trimethoxyphenyl)-11-trifluoromethyl-dithieno[2,3-b]-[3,2-g]-5,5-difluoro-5-bora-3a,4a-diaza-s-indacene]: in data set [1], the ε is 140 000 M^−1 cm^−1, the λabs is given as 728 nm and the λflu worked out at 761 nm.
In the same order, the values of `COc1ccc(-c2cc3c(s2)=CC2=C(C(F)(F)F)c4cc5sc(-c6ccc(OC)cc6)cc5n4[B-](F)(F)[N+]=32)cc1` [SBDPiR731, 2,8-Di(4-methoxyphenyl)-11-trifluoromethyl-dithieno[2,3-b]-[3,2-g]-5,5-difluoro-5-bora-3a,4a-diaza-s-indacene] are 185 000 M^−1 cm^−1, 731 nm and 755 nm.
In the same order, the values of `F[B-]1(F)n2c(cc3sc(-c4cccs4)cc32)C(C(F)(F)F)=C2C=c3sc(-c4cccs4)cc3=[N+]21` [SBDPiR735, 2,8-Di(thiophenyl)-11-trifluoromethyl-dithieno[2,3-b]-[3,2-g]-5,5-difluoro-5-bora-3a,4a-diaza-s-indacene] are 125 000 M^−1 cm^−1, 733 nm and 763 nm.
For `Oc1ccc(-c2cc3c(s2)=CC2=C(C(F)(F)F)c4cc5sc(-c6ccc(O)cc6)cc5n4[B-](F)(F)[N+]=32)cc1` [SBDPiR740, 2,8-Di(4-hydroxyphenyl)-11-trifluoromethyl-dithieno[2,3-b]-[3,2-g]-5,5-difluoro-5-bora-3a,4a-diaza-s-indacene], in that order: 101 000 M^−1 cm^−1, 738 nm and 763 nm.
With `F[B-]1(F)n2c(cc3sc(C=Cc4ccccc4)cc32)C(C(F)(F)F)=C2C=c3sc(C=Cc4ccccc4)cc3=[N+]21` [SBDPiR755, 2,8-Di(styryl)-11-trifluoromethyl-dithieno[2,3-b]-[3,2-g]-5,5-difluoro-5-bora-3a,4a-diaza-s-indacene], in data set [1], the ε is reported as 110 000 M^−1 cm^−1, the λabs is recorded as 753 nm and the λflu is given as 785 nm.
`COc1ccc(C=Cc2cc3c(s2)=CC2=C(C(F)(F)F)c4cc5sc(C=Cc6ccc(OC)cc6)cc5n4[B-](F)(F)[N+]=32)cc1` [SBDPiR790, 2,8-Di(4-(methoxy-phenyl)vinyl)-11-trifluoromethyl-dithieno[2,3-b]-[3,2-g]-5,5-difluoro-5-bora-3a,4a-diaza-s-indacene]: in data set [1], the ε is 85 000 M^−1 cm^−1. The compound further displayed a λabs in data set [1] of 786 nm. In addition, the “in vivo fluorescence emission image” value was “most of the dye still remained in the peritoneal cavity” in data set [5] (15 minutes postinjection, ex 760 nm / em 830 nm); “all skin area showed relatively bright emission with intense bright spots in mid-body” in data set [5] (3 hours postinjection); “an intense emission was observed in the tumor area” in data set [5] (6 hours postinjection); “brighter emission was observed at the tumor site than other body” in data set [5] (24 hours postinjection).
In turn, `CN(C)c1ccc(-c2cc3c(s2)=CC2=C(C(F)(F)F)c4cc5sc(-c6ccc(N(C)C)cc6)cc5n4[B-](F)(F)[N+]=32)cc1` [SBDPiR840, 2,8-Di(4-N,N,dimethylaminophenyl)-11-trifluoromethyl-dithieno[2,3-b]-[3,2-g]-5,5-difluoro-5-bora-3a,4a-diaza-s-indacene] had a λabs in data set [1] of 841 nm.

The values are drawn from patent publication US9611281B2, “BODIPY derivatives and methods of synthesis and use thereof” (The Board of Regents of the University of Oklahoma, priority 2013, dated 2017).
